{
  "source": "patent US20210361600A1",
  "about": "“METHODS FOR INDUCING CHONDROGENESIS” (THE SCRIPPS RESEARCH INSTITUTE, priority 2017, published 2021)",
  "key": {"in vivo": {"assay": "in vivo", "details": "dog, iv; for AUC(0-t): AUC0-t"}, "CBFβ": {"system": "CBFβ", "assay": "CBFβ nuclear localization in hMSCs (Western blotting)", "type": "cell-based, human", "details": "hMSCs, 1, 10 and 100 nM, 1 hour", "protocol": "Primary human MSCs were obtained from Cell Applications. The hMSCs were grown in Mesenchymal Stem Cell expansion media and used between passage 2 and 8 for all experiments. Nuclear cell lysate fractionation and western blotting\nThe cells were scraped off the dishes mechanically, and pipetted gently to break the cell debris. The cell lysate was centrifuged at 2000 rpm at 4° C. for 5 min and the supernatant was saved as the cytosolic fraction. The pellet was washed with washing buffer (20 mM HEPES, pH 7.9, 20% glycerol, 0.2 mM EDTA, 1 mM DTT and protease inhibitor cocktail) once and centrifuged at 2000 rpm for 5 min. The supernatant was discarded, the pellets were suspended in nuclear extraction buffer (2 mM HEPES, pH7.9, 400 mM NaCl, 20% glycerol, 0.2 mM EDTA, 1 mM DTT and protease inhibitor cocktail) and then incubated on ice for 45 min. The mixture was centrifuged at 13,000 rpm for 15 min at 4° C., and the supernatant was saved as nuclear fraction.\nProteins were resolved using SDS-PAGE gel electrophoresis, transferred to a PVDF membrane using semi-dry blotting cell. The membrane was blocked in blocking buffer (LiCor) for 1 hr at room temperature, followed by incubation with primary antibody in blocking buffer at 4° C. overnight. […]"}, "[1]": {"system": "Rat Medial Meniscal Tear Model", "assay": "Effect of dose frequency of compound A in a rat medial meniscal tear model", "type": "in vivo, Lewis rats", "protocol": "The vehicle was prepared separately, then added to aliquots of compound A powder, and the mixture was then vortexed until it becomes a clear solution. Dosing solutions were prepared for doses of 3.5 and 0.35 μg/kg (100 μM and 10 μM respectively). Dosing volume was set to 30 μL/knee. Dosing solutions were prepared fresh weekly.\nFourteen-week-old male Lewis rats (Charles River, Kingston, N.Y.) were in the weight range of 300-320 g at the start of the study\nRats were sorted based on body weight into 8 study groups of 15 rats. They were surgerized and enrolled in a staggered fashion across one week (20 animals per day for 6 days). Briefly, animals were anesthetized with a ketamine/xylazine cocktail (50 mg/kg Ketaved—Henry Schein, and 5 mg/kg Xyalzine—AniSed respectively) by intraperitoneal injection, administered appropriate analgesics (Flunixin, 5 mg/kg subcutaneous injection), and the surgical site shaved and disinfected. A small incision was made on the medial right hind knee to expose the collateral ligament. The collateral ligament was transected and the joint capsule opened sufficiently to expose the medial meniscus. The meniscus was transected completely, then the skin incision was closed, and pressure applied to the wound to prevent hematoma development. Animals were allowed to recover on a heated blanket and were returned to their home cage. Sham procedures were carried out in a similar fashion, except the medial meniscus was not cut. All surgical procedures were performed aseptically and all procedures were approved by the institute IACUC. Animals were monitored daily for the following week for postoperative care prior to dosing. Any animals with atypical healing (bruising/hematoma) were removed from the study and replaced with spare animals.\nAnimals were weighed weekly at the time of dosing (8-10 am), and a standardized dose of 30 μl of either vehicle or compound was administered via injection into the intra-articular space according to the regimens outlined above (groups A, B, E and H dosed once weekly, groups C and F dosed every other week, and groups D and G dosed once for the duration of the study). Animals were dosed using a Hamilton syringe with a 27 G needle attached. On study day 28, animals were euthanized, a terminal blood sample collected, and knees were harvested and placed in formalin jars for histology analysis and pathology scoring.\nAnalysis of the knee joint histology was performed by Bolder BioPATH. A variety of measurements to characterize the lesions were performed to score the joints based on lesion depth, severity, and overall size."}},
  "data": [
    {"smiles": "COCCc1ccc(NC(=O)c2ccccc2NS(C)(=O)=O)cc1", "note": "[Compound A, N-(4-(2-methoxyethyl)phenyl)-2-(methylsulfonamido)benzamide]", "values": [
      {"measurement": "half-life", "setting": "in vivo; both, beagle", "value": "38.4 to 55.8", "unit": "min"},
      {"measurement": "AUC(0-t)", "setting": "in vivo; female, Beagle, 0.125 mg/kg", "value": 131, "unit": "ng·h/mL"},
      {"measurement": "Cmax", "setting": "in vivo; female, Beagle, 0.125 mg/kg", "value": 181, "unit": "ng/mL"},
      {"measurement": "AUC(0-t)", "setting": "in vivo; female, Beagle, 0.6 mg/kg", "value": 1230, "unit": "ng·h/mL"},
      {"measurement": "Cmax", "setting": "in vivo; female, Beagle, 0.6 mg/kg", "value": 1330, "unit": "ng/mL"},
      {"measurement": "AUC(0-t)", "setting": "in vivo; female, Beagle, 1.25 mg/kg", "value": 2150, "unit": "ng·h/mL"},
      {"measurement": "Cmax", "setting": "in vivo; female, Beagle, 1.25 mg/kg", "value": 2460, "unit": "ng/mL"},
      {"measurement": "Vd", "setting": "in vivo; female, beagle", "value": "0.534 to 0.855", "unit": "L/kg"},
      {"measurement": "clearance", "setting": "in vivo; female, beagle", "value": "8.2 to 16.4", "unit": "mL/min/kg"},
      {"measurement": "AUC(0-t)", "setting": "in vivo; female, beagle, 0.125 mg/kg", "value": 178, "unit": "ng·h/mL"},
      {"measurement": "AUC(0-t)", "setting": "in vivo; female, beagle, 0.6 mg/kg", "value": 1200, "unit": "ng·h/mL"},
      {"measurement": "Vd", "setting": "in vivo; male, beagle", "value": "0.44 to 0.692", "unit": "L/kg"},
      {"measurement": "clearance", "setting": "in vivo; male, beagle", "value": "7.25 to 11.4", "unit": "mL/min/kg"},
      {"measurement": "AUC(0-t)", "setting": "in vivo; male, beagle, 0.125 mg/kg", "value": 181, "unit": "ng·h/mL"},
      {"measurement": "Cmax", "setting": "in vivo; male, beagle, 0.125 mg/kg", "value": 308, "unit": "ng/mL"},
      {"measurement": "AUC(0-t)", "setting": "in vivo; male, beagle, 0.6 mg/kg", "value": 1190, "unit": "ng·h/mL"},
      {"measurement": "Cmax", "setting": "in vivo; male, beagle, 0.6 mg/kg", "value": 2100, "unit": "ng/mL"},
      {"measurement": "AUC(0-t)", "setting": "in vivo; male, beagle, 1.25 mg/kg", "value": 2600, "unit": "ng·h/mL"},
      {"measurement": "Cmax", "setting": "in vivo; male, beagle, 1.25 mg/kg", "value": 2580, "unit": "ng/mL"},
      {"measurement": "CBFβ levels in the nuclear fraction", "setting": "CBFβ", "value": "increase"},
      {"measurement": "combined cartilage degeneration widths with scores from mild to severe", "setting": "[1]; 10 μM (0.105 μg/knee) IA once every other week, vs vehicle", "value": "statistically significant improvement"},
      {"measurement": "substantial cartilage degeneration width", "setting": "[1]; 10 μM (0.105 μg/knee) IA once weekly or once every other week, vs vehicle", "value": "improvement"},
      {"measurement": "mild-to-severe degeneration widths", "setting": "[1]; 10 μM (0.105 μg/knee) IA weekly", "value": "trend towards a reduction"},
      {"measurement": "adverse effects", "setting": "[1]; IA, any dosing schedule (once weekly, once every other week, once per study), 100 μM or 10 μM", "value": "no adverse effects"},
      {"measurement": "progression of cartilage degeneration", "setting": "[1]; dosing once every four weeks", "value": "did not demonstrate an effect"},
      {"measurement": "width of cartilage lesions where greater than 10% of the cartilage is damaged or lost", "setting": "[1]; dosing once every other week", "value": "significant reduction"},
      {"measurement": "most severe cartilage lesions", "setting": "[1]; not statistically significant", "value": "trend towards an improvement"}
    ]}
  ]
}
